In brackets after ≈: the same amount, converted by molar mass.
How the values were obtained:
P-glycoprotein (MDR1) = assay: MDR1-MDCK cell bi-directional permeability; assay type: in vitro ADME; details: dog; for Papp A→B at 2.5 h, 2 μM: A to B, HBSS pH 7.4, read-out: MDR1-MDCK Monolayer Cell Bi-directional Permeability Parameters A to B; for Papp B→A at 2.5 h, 2 μM: B to A, HBSS pH 7.4, read-out: MDR1-MDCK Monolayer Cell Bi-directional Permeability Parameters B to A; for efflux ratio at 2.5 h, 2 μM: HBSS pH 7.4, read-out: MDR1-MDCK Monolayer Cell Bi-directional Permeability Parameters Efflux Ratio
From the text: 2. MDR1-MDCK cell bi-directional permeability evaluation experiment: MDR1-MDCK cells that permanently express human P-glycoprotein (P-glycoprotein) were planted on 96-well Insert cell plates and cultured for 4 to 7 days to form aggregated monolayer cells. The assessment of unidirectional (A→B) permeability of the fenoterol (low permeability marker) and propranolol (high permeability marker) and the bi-directional permeability of Digoxin (a P-glycoprotein substrate) were used to verify the quality of monolayer cells. The three control compounds do two complex wells.
The standard conditions for the transport experiments of the test compound were as follows: • Test concentration: 2 μM (DMSO≤1%); • Repetition: n=3; • Direction: bidirectional transport consisting of two directions: A→B and B→A; • Incubation time: single time point, 2.5 hours; • Transport buffer: HB SS, pH 7.4; • Incubation conditions: 37° C., 5% CO2, 95% relative humidity.
After the incubation, the sample solutions taken from the donor wells and the receive wells were immediately mixed with a cold acetonitrile solution containing the internal standard. And the amount of accumulation of intracellular compounds was measured by lysing the cells with a cold acetonitrile solution containing the internal standard. The concentrations of the test compound in all samples (including the initial administration solution, the supernatant of donor wells, the receiver solution, the cell lysate) were analyzed by the LC/MS/MS method. The concentration of the test compound was expressed by the ratio of its peak area to the internal standard peak area.

Kinetic solubility test = assay type: physicochemical; details: buffer, 22 °C, aqueous buffer, kinetic from dmso stock, pH 2.0, room temperature
Protocol: 1. […] The test compound and the control compound (10 mM DMSO mother liquor, 10 uL per well) were added to a 96-well plate containing 490 uL of buffer per well. After vortexing for 2 minutes, the plates were incubated on the shaker at room temperature (22±2° C.) for 24 hours. The 200 uL sample was then transferred to a MultiScreen filter plate (polycarbonate film), filtered through a millipore vacuum manifold, and the filtrate was collected. The concentration of the compound in the filtrate was determined by HPLC-UV. Three different concentrations of UV standard solution and solubility test samples were injected successively. Each sample was injected 2 times, and the concentration was taken into the standard curve, and the average value was calculated.

[1] = test system: Mycobacterium bovis BCG strain TMC1019 (ATCC35737); assay: microbe, parasite or virus in culture; assay type: cell-based; details: Mycobacterium tuberculosis variant bovis BCG, 24 h, read-out: M. bovis ATCC35737 (ug/mL)
[2] = Pharmacokinetics in vivo in mice; details: CD-1 male mice
Protocol: The pharmacokinetic characteristics of rodents after intravenous and oral administration of the compound were tested in a standard protocol. Specifically, the candidate compounds of the experiment were injected intravenously and administered orally for 7 to 10 weeks old CD-1 male mice. The oral preparation was a 0.5% suspension of methylcellulose, and the intravenous preparation was a clear solution of ethanol/DMSO/polyethylene glycol 400/pure water (10:10:50:30). Plasma and lung samples were collected and analyzed by the LC-MS/MS method and the pharmacokinetic parameters were calculated.

[3] = test system: Mycobacterium tuberculosis H37Rv strain; assay: In vitro MIC against M. tuberculosis H37Rv strain (MABA, Alamar Blue); assay type: cell-based
Protocol: Part I: The in vitro efficacy of anti-Mycobacterium tuberculosis compounds was tested using H37Rv strain.
On the day of the test, the compound was dissolved in pure DMSO (Sigma 276855-2L) to a concentration of 10 mg/mL which was used as the mother liquor of the compound. 30 μL of DMSO was added to wells of column 2 to 11 s of the v-bottom 96-well plates (Axygen-wipp02280). 30 μL of the mother liquor of the compound was added to the well of column 2, after mixing, 30 μL was taken from the well of column 2 and added to the well of column 3, and then pipetted and mixed. The operation was taken to column 10. Column 11 was free of medicine and contained only 30 μL of DMSO. This was the “motherplate” of the compound. From column 2 to 11, the corresponding concentration of the compound was 5, 2.5, 1.25, 0.625, 0.3125, 0.156, 0.078, 0.039, 0.02, 0 mg/mL. […] A flat bottom 96-well plate (Greiner 655090) was used as a “daughterplate”. 98 μL of 7H9 (Sigma M0178) medium was added to the wells of all daughterplates. 2 μL of compound was extracted from the motherboard and added to the corresponding daughter plate. Line A and H, column 1 and 12 of the daughterplate contained only 7H9 medium.
The H37Rv strain in the glycerol cryovial was inoculated into 7H9 medium containing 0.05% Tween 80 and cultured for 4 weeks at 37° C. in a shaker with 200 rpm. The bacterial liquid was washed twice with 7H9 medium containing 0.05% Tween 80 and resuspended in the same medium. The absorbance of the bacteria liquid was adjusted to OD550=0.4-0.5 using the same medium. The bacteria liquid was sub-packed in microcentrifuge tubes and stored at −80° C. Storage time was no more than 1 month. On the day of the test, the packaged bacteria liquid would be […]. The bacteria liquid was diluted 20 times and then diluted 50 times with 7H9 medium, and a total of 1000 times dilution. The bacteria liquid would be used to inoculate on the daughterplate. 100 μL of bacterial liquid was inoculated in each well of the daughterboard, 100 μL 7H9 medium was added to column 12 and without bacteria liquid.
The test daughterplate was placed in an incubator at 37° C. and the humidity was maintained at >80%. A week later, 12.5 μL of 7H9 medium containing 20% Tween 80 and 20 μL of Alamar Blue (Invitrogen DAL1100) were added to the well of a column 1 containing bacteria and the well of a column 12 without bacteria every day, and then continue to incubate for 24 hours and observed. When the added Alamar Blue was reduced to pink in 24 hours by the bacteria liquid in the well of column 1, the 7H9 medium containing 20% Tween 80 and Alamar Blue were added to all wells on the test plate and the fluorescence values were measured after incubation for 24 hours at 37° C.

M. tuberculosis H37R = assay: M. tuberculosis LORA MIC; assay type: cell-based; details: Mycobacterium tuberculosis, read-out: M. tuberculosis H37R LORA (MIC) (ug/mL)
Vero Cell = assay: Vero cell cytotoxicity; assay type: cell-based; details: Chlorocebus sabaeus, Vero cells

SMILES	Papp A→B at 2.5 h, 2 μM (P-glycoprotein (MDR1)) [×10⁻⁶ cm/s]	Papp B→A at 2.5 h, 2 μM (P-glycoprotein (MDR1)) [×10⁻⁶ cm/s]	efflux ratio at 2.5 h, 2 μM (P-glycoprotein (MDR1))	solubility kinetic at 24 h (Kinetic solubility test) [µM]	MIC [1] [µg/mL]	Pulmonary Drug Concentration (nM/Kg) PO 1 (h) ([2]; lung, 1 h after administration) [nM/kg]	drug concentration in lung relative to the reference compound (OPC-67683) ([2]; oral, 1 hour after administration)	Cmax ([2]; mouse, oral, plasma) [nM]	MIC [3] [µg/mL]	MIC (M. tuberculosis H37R) [µg/mL]	IC50 (Vero Cell) [µg/mL]
C[C@]1(CN2CCc3nc(-c4ccc(F)cc4)ccc3C2)Cn2cc([N+](=O)[O-])nc2O1 [Compound 7, (S)-2-((2-(4-Fluorophenyl)-7,8-dihydro-1,6-naphthyridin-6(5H)-yl)methyl)-2-methyl-6-nitro-2,3-dihydroimidazo[2,1-b]oxazole]	17.7	19.3	1.09	143 (≈ 58.7 µg/mL)	< 1	16147	more than 9 times	6720	< 1	1 to 32 (≈ 2.44 to 78.2 µM)	> 32
C[C@]1(CN2Cc3nc(-c4ccc(F)cc4)sc3C2)Cn2cc([N+](=O)[O-])nc2O1 [Compound 69, (S)-2-((2-(4-Fluorophenyl)-4H-pyrrolo[3,4-d]thiazol-5(6H)-yl)methyl)-2-methyl-6-nitro-2,3-dihydroimidazo[2,1-b]oxazole]	20.9	15.8	0.76	39.3 (≈ 15.8 µg/mL)	< 1				< 1	1 to 32 (≈ 2.49 to 79.7 µM)	> 32
C[C@]1(CN2Cc3nc(-c4ccc(F)cc4)oc3C2)Cn2cc([N+](=O)[O-])nc2O1 [Compound 89, (S)-2-(4-Fluorophenyl)-5-((2-methyl-6-nitro-2,3-dihydroimidazo[2,1-b]oxazol-2-yl)methyl)-5,6-dihydro-4H-pyrrolo[3,4-d]oxazole]	25.9	18.5	0.71	100 (≈ 38.7 µg/mL)	< 1				< 1		> 32
CC1(CN2CCc3nc(-c4ccccc4)ccc3C2)Cn2cc([N+](=O)[O-])nc2O1 (single isomer, unassigned) [Compound 1B, 2-methyl-6-nitro-2-((2-phenyl-7,8-dihydro-1,6-naphthyridin-6(5H)-yl)methyl)-2,3-dihydroimidazo[2,1-b]oxazole]	16.8	22.7	1.35	130 (≈ 50.7 µg/mL)	< 1				< 1	1 to 32 (≈ 2.55 to 81.8 µM)	> 32
